These are literature values, as cited in patent US7709469B2, “P2X7 receptor antagonists and methods of use” (Abbott Laboratories, priority 2005, dated 2010).

Each structure is given as a SMILES string.

In data set [1] the target is T1, P2X7 (Rattus norvegicus, UniProt Q64663).
T1 sequence (Q64663 1-595): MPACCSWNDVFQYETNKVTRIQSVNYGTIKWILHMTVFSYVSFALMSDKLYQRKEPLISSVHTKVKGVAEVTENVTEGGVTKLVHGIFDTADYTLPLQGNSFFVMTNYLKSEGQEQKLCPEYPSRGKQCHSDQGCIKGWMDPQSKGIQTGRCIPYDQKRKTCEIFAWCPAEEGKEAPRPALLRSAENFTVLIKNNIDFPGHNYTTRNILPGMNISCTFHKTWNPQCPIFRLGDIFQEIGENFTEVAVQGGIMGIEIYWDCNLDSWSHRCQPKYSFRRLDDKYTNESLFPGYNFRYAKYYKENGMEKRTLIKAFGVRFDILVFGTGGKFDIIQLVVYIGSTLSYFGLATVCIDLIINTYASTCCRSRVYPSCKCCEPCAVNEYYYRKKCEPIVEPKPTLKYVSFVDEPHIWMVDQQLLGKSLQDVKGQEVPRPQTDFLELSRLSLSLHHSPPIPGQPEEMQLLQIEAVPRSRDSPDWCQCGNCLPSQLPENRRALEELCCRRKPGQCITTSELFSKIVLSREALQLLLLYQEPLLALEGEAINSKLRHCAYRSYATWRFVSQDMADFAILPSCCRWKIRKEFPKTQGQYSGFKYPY
On the set-up: Rats with SCI were administered P2X7 receptor irreversible antagonists oATP and PPADS; host or cells: living rats (endogenous receptor). The note with it: rats with SCI.

The target in data set [2] is T1, P2X7. Details: host or cells: living rats (endogenous receptor). As to conditions: inflamed rats.

For `Cc1nc(N=Nc2ccc(S(=O)(=O)O)cc2S(=O)(=O)O)c(COP(=O)(O)O)c(C=O)c1O` [PPADS], the “histological injury and recovery of motor function after SCI” value at P2X7 [1] was “decrease of histological injury and improved recovery of motor function”.

With `Nc1ncnc2c1ncn2[C@@H](C=O)O[C@@H](C=O)COP(=O)(O)OP(=O)(O)OP(=O)(O)O` [oATP, Oxidized ATP], the antinociceptive properties entry on P2X7 [2] is recorded as “possess peripherally mediated antinociceptive properties”. The “histological injury and recovery of motor function after SCI” value on P2X7 [1] was “decrease of histological injury and improved recovery of motor function”.
